Common to all, as to assay: growth of human tumour cells (NCI), 48 h
The subject of test [1] is A498 renal.
Test [2] has as its system A549 NSCLC.
Test [3] deals with HL-60(TB) leukemia.
Test [4] deals with HS 578T breast.
Test [5] relates to IGROV1 ovarian.
In test [6] the test system is LOX IMVI melanoma.
The subject of test [7] is MALME-3M melanoma.
Test [8] deals with MDA-MB-435.
Test [9] has as its system MDA-N.
Test [10] has as its system NCI-H460 lung.
Test [11] has as its system NCI/ADR-RES ovarian.
In test [12] the test system is OVCAR-4 ovarian.
Test [13] deals with RPMI-8226 leukemia.
Test [14] concerns SF-539 CNS.
The test system of test [15] is SK-MEL-5 melanoma.
Test [16] deals with SNB-19 CNS.
Test [17] deals with TK-10 renal.
Test [18] has as its system U251 CNS.
Test [19] deals with UACC-257 melanoma.
Test [20] deals with MOLT-4 leukemia.

The structures appear in SMILES notation.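 These data come from cells grown in 96-well plates and exposed to compound for 48 hours at five concentrations. TGI marks complete inhibition of growth.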 Bounds are passed on as bounds.

Turning to `COc1ccccc1C1c2cc3c(cc2OC(N2CCCC2)C1C)OCO3` (stereo unspecified), the TGI was determined as 30.3 µM in test [1]; 46 µM in [2]; 49 µM in [3]; 30 µM in [4]; 51.5 µM in test [5]; 38.1 µM in test [6]. The TGI came out at 43.2 µM in test [7]; 34.2 µM in test [8]; 28.9 µM in test [9]; 40.9 µM in test [10]; 53.7 µM in [11]; 70.5 µM in [12]. Moreover, the TGI in test [13] was determined as 38.8 µM; in [14], 31.7 µM; in test [15] it was 29.4 µM; in [16] it was 47.9 µM; in test [17], 47.9 µM; in test [18], 39.1 µM. Further, in test [19], the TGI came out at 48.1 µM.

Consider `O=S(=O)(O)c1ccc2cc(N=Nc3c(O)ccc4ccccc34)ccc2c1`, for which the TGI in test [1], in test [2], in [3], in test [4], in [5] and in test [7] was > 100 µM throughout. Further, the TGI in test [8], in test [9], in [20], in [10], in [11] and in [12] was > 100 µM throughout. Also, the TGI in test [14], in test [15], in [16], in [17], in test [18] and in [19] was > 100 µM in each case.

With `COC(=O)[C@@]1(NC(=O)C(CC(=O)OC(C)(C)C)NC(=O)OC(C)(C)C)C[C@H]1C` (stereo partly specified), the TGI in test [1], in [2], in test [4], in test [5], in test [6] and in test [7] was > 100 µM each time. In addition, the TGI in test [8], in test [9], in [20], in [10], in test [11] and in [12] was > 100 µM in each case. In addition, the TGI in [13], in [14], in [15], in test [16], in test [17] and in [18] was > 100 µM each time. Also, the TGI in test [19] was > 100 µM.

As for `COc1ccc(-n2c(C)nc3ccc(NC4OC(CO)C(O)C(O)C4O)cc3c2=O)cc1` (stereo unspecified), the TGI in [1], in test [3], in test [4], in test [5], in [6] and in [7] was > 100 µM throughout. The TGI in test [8], in [9], in test [20], in test [10], in test [11] and in test [12] was > 100 µM each time. Besides, the TGI in test [13], in [15], in [16], in test [17], in test [18] and in [19] was > 100 µM each time.

Turning to `C=C1C2CCC3(CCC4C5(C)CCCC4(C=[N+](CCO)C5)C3C2)C1O` (stereo unspecified), the TGI in test [1], in test [2], in [3], in test [4], in test [5] and in [6] was > 100 µM throughout. Further, the TGI in test [7], in [8], in test [9], in [10], in [11] and in test [12] was > 100 µM throughout. Also, the TGI in [13], in [14], in [15], in test [16], in test [17] and in test [18] was > 100 µM throughout. Further, the TGI in test [19] was > 100 µM.

In the case of `C=C[C@]1(O[Si](C)(C)C)C[C@@]2(C(=O)OCC)C(O)C(=O)N3CCc4cc(OC)c(OC)cc4[C@]312` (stereo partly specified), the TGI in test [1], in test [2], in [4], in test [5], in test [6] and in test [7] was > 100 µM each time. The TGI in [8], in test [9], in test [20], in test [10], in [11] and in [12] was > 100 µM throughout. Besides, the TGI in [13], in test [14], in [15], in test [16], in test [17] and in test [18] was > 100 µM throughout. In [19], the TGI is > 100 µM.

For `Cc1nc(N(C(C)C)C(C)C)c(C(C)C)o1`, the TGI in test [1], in test [2], in [3], in test [4], in test [5] and in [6] was > 100 µM throughout. In addition, the TGI in test [7], in test [8], in [9], in [20], in test [10] and in test [11] was > 100 µM each time. Besides, the TGI in [12], in test [14], in test [15], in test [16], in test [17] and in [18] was > 100 µM in each case. Also, the TGI in [19] was > 100 µM.

The values are drawn from PubChem BioAssay (NCI).
